Experimental data: PubChem BioAssay (NCI)
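Growth conditions: 96-well plates. Treatment: test compound, 48 hours, 5 concentrations. Analysis: linear interpolation between bracketing concentrations; unreached endpoints set to highest concentration. The concentration for full growth arrest is given as TGI.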

Legend:
Assay in all cases: NCI-60 cell line screen, 48 h
SK-MEL-5 melanoma = tested on: SK-MEL-5 melanoma
SK-MEL-28 melanoma = tested on: SK-MEL-28 melanoma
A549 NSCLC = tested on: A549 NSCLC
MDA-MB-435 = tested on: MDA-MB-435
SK-OV-3 ovarian = tested on: SK-OV-3 ovarian
RXF 393 renal = tested on: RXF 393 renal
EKVX NSCLC = tested on: EKVX NSCLC
HOP-62 NSCLC = tested on: HOP-62 NSCLC
TK-10 renal = tested on: TK-10 renal
BT-549 breast = tested on: BT-549 breast
UO-31 renal = tested on: UO-31 renal
A498 renal = tested on: A498 renal
MDA-N = tested on: MDA-N
IGROV1 ovarian = tested on: IGROV1 ovarian
NCI-H460 lung = tested on: NCI-H460 lung
NCI-H23 lung = tested on: NCI-H23 lung
MOLT-4 leukemia = tested on: MOLT-4 leukemia
SF-539 CNS = tested on: SF-539 CNS
SR leukemia = tested on: SR leukemia
MALME-3M melanoma = tested on: MALME-3M melanoma

Row | SMILES | TGI (SK-MEL-5 melanoma) | TGI (SK-MEL-28 melanoma) | TGI (A549 NSCLC) | TGI (MDA-MB-435) | TGI (SK-OV-3 ovarian) | TGI (RXF 393 renal) | TGI (EKVX NSCLC) | TGI (HOP-62 NSCLC) | TGI (TK-10 renal) | TGI (BT-549 breast) | TGI (UO-31 renal) | TGI (A498 renal) | TGI (MDA-N) | TGI (IGROV1 ovarian) | TGI (NCI-H460 lung) | TGI (NCI-H23 lung) | TGI (MOLT-4 leukemia) | TGI (SF-539 CNS) | TGI (SR leukemia) | TGI (MALME-3M melanoma)
1 | CC1CC/C(=C\c2ccc(Cl)cc2)C(=O)/C1=C\c1ccc(Cl)cc1 (stereo not given) | 40.1 µM | > 100 µM | > 100 µM | > 100 µM | > 100 µM | 71.7 µM | 63.7 µM | 57.9 µM | 79.8 µM | 50.3 µM | > 100 µM | 17.7 µM | > 100 µM | 46.9 µM | – | – | – | – | – | –
2 | COc1ccccc1-c1n[nH]c(-c2ccccc2O)n1 | > 100 µM | > 100 µM | > 100 µM | > 100 µM | > 100 µM | > 100 µM | – | > 100 µM | > 100 µM | > 100 µM | > 100 µM | > 100 µM | > 100 µM | – | > 100 µM | > 100 µM | > 100 µM | > 100 µM | – | –
3 | COC(=O)CC(SCCO)SCCO | > 100 µM | > 100 µM | > 100 µM | > 100 µM | > 100 µM | > 100 µM | > 100 µM | > 100 µM | > 100 µM | – | > 100 µM | > 100 µM | > 100 µM | > 100 µM | > 100 µM | > 100 µM | > 100 µM | > 100 µM | > 100 µM | > 100 µM
4 | Nc1c(O)c2c(c(O)c1Cl)C(=O)C=CC2=O | 2.04 µM | 8.68 µM | 5.68 µM | 3.16 µM | > 60.7 µM | 21 µM | 24.4 µM | 15.9 µM | 37 µM | 3.38 µM | 24.5 µM | 27.3 µM | 3.24 µM | 14 µM | 4.64 µM | 4.89 µM | > 87.6 µM | 7.76 µM | – | 0.894 µM
5 | O=S(=O)(O)c1cc(S(=O)(=O)O)c2c(N=Nc3ccccc3)c(O)ccc2c1 | > 100 µM | > 100 µM | > 100 µM | > 100 µM | > 100 µM | > 100 µM | – | > 100 µM | > 100 µM | > 100 µM | > 100 µM | > 100 µM | > 100 µM | > 100 µM | – | > 100 µM | > 100 µM | – | – | –
6 | Cc1ccc([N+](=O)[O-])cc1S(=O)(=O)Nc1ccc(C2=NOC(c3ccccc3)C2)cc1 (stereo not given) | 20.1 µM | > 100 µM | > 100 µM | – | 56.5 µM | 9.44 µM | 69.1 µM | 22.9 µM | – | 51.9 µM | 72.1 µM | 56.8 µM | 6.38 µM | > 100 µM | 29.1 µM | > 100 µM | 9.23 µM | 33.4 µM | 12.1 µM | 68.2 µM
7 | N#CCN(Cc1ccccc1)[C@H]1CCC[C@]1(O)/C=C/c1ccc2c(c1)OCO2 | 30.1 µM | 34 µM | > 100 µM | 53.2 µM | > 100 µM | 77.3 µM | > 100 µM | 82.6 µM | > 100 µM | – | > 100 µM | > 100 µM | 35.7 µM | 92.2 µM | 38.2 µM | 69.2 µM | 48.1 µM | 88.8 µM | 40.2 µM | 32.1 µM
8 | CNc1nc2c(C)ccc3nc(N(C)C)nc-3c2n1C | > 10 µM | > 10 µM | > 10 µM | > 10 µM | > 10 µM | > 10 µM | > 10 µM | > 10 µM | > 10 µM | > 10 µM | > 10 µM | > 10 µM | > 10 µM | > 10 µM | > 10 µM | > 10 µM | > 10 µM | > 10 µM | – | > 10 µM
9 | O=[N+]([O-])/C(C(Cl)=C(Cl)Cl)=C(\Nc1cccc2cccnc12)Sc1ccccc1 | – | 36 µM | > 100 µM | 42.7 µM | > 100 µM | – | > 100 µM | 80.7 µM | – | 48 µM | 49.7 µM | 69.4 µM | > 100 µM | – | > 100 µM | 37.6 µM | 37.4 µM | 40.4 µM | – | 64.9 µM
10 | [N-]=[N+]=NC1(c2ccccc2)C(=O)c2cccc3c4ccccc4n(c23)C1=O (stereo not given) | > 100 µM | > 100 µM | > 100 µM | 92.8 µM | > 100 µM | > 100 µM | > 100 µM | > 100 µM | > 100 µM | > 100 µM | > 100 µM | > 100 µM | > 100 µM | > 100 µM | > 100 µM | > 100 µM | > 100 µM | > 100 µM | – | > 100 µM
11 | O=c1[nH]nc(Cc2ccccc2)n1N=C1CCCCC1 | > 100 µM | > 100 µM | > 100 µM | > 100 µM | – | > 100 µM | > 100 µM | > 100 µM | > 100 µM | > 100 µM | > 100 µM | > 100 µM | > 100 µM | > 100 µM | > 100 µM | > 100 µM | > 100 µM | – | – | > 100 µM
